# Test results reported in article PMC4552634, “A New Set of Chemical Starting Points with Plasmodium falciparum Transmission-Blocking Potential for Antimalarial Drug Discovery” (PLoS ONE, 2015).
# System: P. falciparum stage V gametocytes
# Assay: microbe, parasite or virus in culture
# Parameters: BacTiter-Glo ATP luminescence viability of purified stage V gametocytes in 384-well plates, per cent inhibition versus DMSO
# Settings: Plasmodium falciparum, 48 h, read-out: % Inhibition
row,Structure (SMILES),inhibition at 5 µM [%]
1,COc1ccc(C=Cc2cc(N)c3ccccc3n2)cc1 [TCMDC-142280],97.9
2,CCN(CC)CCCC(C)Nc1c(-c2ccc(Br)cc2)cnc2ccccc12 (stereo not drawn) [TCMDC-142263],26
3,COc1ccc(CSC2CCCCC23NC(=S)NC3=S)cc1 (stereo not drawn) [TCMDC-142273],5.66
4,Cc1ccccc1Nc1nc(NCCCO)c2ccccc2n1 [TCMDC-142327],41.9
5,Cc1cc(Br)cnc1CCCCN=C1NC(=O)CN1C [TCMDC-142309],5.26
6,COc1cccc(C=NNc2cc(C)nc3ccccc23)c1 [TCMDC-142183],-15.9
7,CON(CCCN(C)C)C(=N)N [TCMDC-142297],12.5
8,COc1ccc2c(NN=CC=Cc3ccccc3)ccnc2c1 [TCMDC-142144],-5.92
9,COc1ccc2nccc(NN=Cc3ccccc3F)c2c1 [TCMDC-142130],6.1
10,Cc1ccc2c(c1[N+](=O)[O-])N=NCC2Oc1ccccc1 (stereo not drawn) [TCMDC-142213],38.1
11,COc1ccc(C2CNCc3c2cc(OC)c(OC)c3Cl)cc1 (stereo not drawn) [TCMDC-142271],22.9
12,Cc1cc(NN=Cc2ccc(Cl)cc2)c2cccc(C)c2n1 [TCMDC-142115],-40.8
13,N=C(N)c1cccc(OCCCOc2cccc(NC(=O)Nc3ccc([N+](=O)[O-])cc3)c2)c1 [TCMDC-142189],24.9
14,Cc1cc(NN=Cc2ccc(F)cc2)c2cc(F)ccc2n1 [TCMDC-142172],-47.2
15,COc1ccc2ccccc2c1C=NNc1cc(C)nc2c(C)cccc12 [TCMDC-142234],35.2
16,CCOc1ccc2c(NN=Cc3cccc(F)c3)cc(C)nc2c1 [TCMDC-142194],-6.63
17,Cc1ccccc1Nc1nc(NCCc2ccccc2)nc2ccccc12 [TCMDC-142322],101

row,Structure (SMILES),inhibition at 5 µM [%]
1,CC(C)(C)c1cc(Cl)cc(C(=O)Nc2cc([N+](=O)[O-])ccc2Cl)c1O [TCMDC-142214],36.2
2,CC(C)(C)NCC(O)COc1ccc(Cl)cc1C1=NNC(=O)CC1 (stereo not drawn) [TCMDC-142298],8.53
3,Nc1c2c(nc3ccccc13)C(=Cc1ccc(O)cc1)CCC2 [TCMDC-142288],-4.93
4,N[C@@H](Cc1cc(I)c(Oc2ccc(O)c(C(=O)O)c2)c(I)c1)C(=O)O [TCMDC-142341],5.53
5,Nc1c2c(nc3ccc(C(=O)Nc4ccc(Br)cc4)cc13)CCCC2 [TCMDC-142287],62.2
6,Cc1ccc(Cc2cnc(NCCSCc3ccc(CN4CCOCC4)o3)[nH]c2=O)cn1 [TCMDC-142303],-5.99
7,COc1ccc2c(NN=Cc3cccc(C)n3)cc(-c3ccccc3)nc2c1 [TCMDC-142120],-50.4
8,Cc1cc(F)ccc1Nc1nc(N(C)c2ccccc2)c2cc(OCCCN(C)C)ccc2n1 [TCMDC-142332],57.7
9,CCCC(=O)c1cnc2cc(O)ccc2c1Nc1ccccc1C [TCMDC-142323],-12.6
10,COc1cc2c(cc1OC)C(c1ccc(Br)cc1)CN(C)CC2 (stereo not drawn) [TCMDC-142272],20.3
11,COc1ccc2nccc(NN=CC=Cc3ccccc3)c2c1 [TCMDC-142143],39
12,Fc1cccc(C=NNc2ccnc3ccc(C(F)(F)F)cc23)c1 [TCMDC-142151],-62.1
13,CC(C)NCc1cc(Nc2ccnc3cc(Cl)ccc23)ccc1O [TCMDC-142277],-61.6
14,CCCCN(CCCC)CCC(O)C(=Cc1ccc(Cl)cc1Cl)c1ccc(C(F)(F)F)cc1N (stereo not drawn) [TCMDC-142318],-17.1
15,COc1ccc2nccc(NN=Cc3ccc(F)cc3)c2c1 [TCMDC-142132],32.1
16,O=[N+]([O-])c1ccccc1C=NNc1ccnc2ccccc12 [TCMDC-142102],-47.5

# Same assay, conditions: Plasmodium falciparum, 48 h; read-out: % Inhibition
row,Structure (SMILES),inhibition at 5 µM [%]
1,CCCCCCC(C)(C)c1cc(O)c2c(c1)OC(C)(C)c1ccncc1-2 [TCMDC-142253],30.7
2,CCCCCC(C)C(C)c1cc(O)c2c(c1)OC1(C(C)C)CC(O)C(C)C2C1 (stereo not drawn) [TCMDC-142232],44.6
3,CCCCCCC(C)c1cc(O)c2c(c1)OC(C)(C)c1ccncc1-2 (stereo not drawn) [TCMDC-142254],56.1
